Reference: paper PMC12040169 (PLOS Biology, 2025)

Experiment: in vitro
Details: human, hela cells, % viability

SMILES	viability at 28.5 h, 10 µM
Cc1ccc(C(=O)C2=C(O)C(=O)N(CCCN3CCOCC3)C2c2ccccn2)o1 (stereo not shown) [CBK269187]	89.7%
COc1ccc(OC)c(C(=O)N2CCNC(=O)C2Cc2ccc(-c3cccs3)cc2)c1 (stereo not shown) [CBK285803]	111%
O=S(=O)(c1sccc1F)N1CCOCC1c1cccc(F)c1 (stereo not shown) [CBK304730]	82.6%
COc1ccc(Cl)cc1S(=O)(=O)N1CCC(C(=O)NCCCO)CC1 [CBK269835]	99%
O=S(=O)(NC1CCCCC1Oc1ccccc1)c1ccc(Cl)cc1 (stereo not shown) [CBK264697]	114%
Cn1ccnc1SCC(=O)Nc1ccc(I)cc1 [CBK057541]	85.3%
O=C(CSc1ncnc2ccccc12)NCc1ccco1 [CBK287509]	98.8%
O=C(O)C(Cc1c[nH]cn1)N1C(=O)C2CC=C(Cl)CC2C1=O (stereo not shown) [CBK286871]	92.4%
COc1ccc(/N=C2\NC(=O)/C(=C\C=C\c3ccccc3)S2)cc1 [CBK263417]	94.2%
COc1cc(C2C3=C(CC(C)(C)CC3=O)Nc3ncnn32)ccc1OCC(=O)N1CCOCC1 (stereo not shown) [CBK268551]	102%
O=S(=O)(c1ccccc1)N(Cc1cc2ccccc2nc1O)CC1CCCO1 (stereo not shown) [CBK269424]	93.3%
Cc1ccc(CN(C)CC(=O)Nc2cc(C(F)(F)F)ccc2Cl)o1 [CBK306085]	90.4%
CS(=O)(=O)NC1CCCN(c2ccc3ccccc3n2)C1 (stereo not shown) [CBK306457]	99.7%
CCOC(=O)CNC(=O)c1cc2ccccc2c(=O)o1 [CBK058083]	97.9%
Cc1nc2c(C(=O)NCC3CCCO3)cnn2c(C)c1Cc1cccnc1 (stereo not shown) [CBK162160]	85.8%
CN(Cc1cccc(C#N)c1)Cc1nc2c(cnn2C)c(=O)[nH]1 [CBK305973]	109%
CC(C)Nc1cncc(OCCN2CCOCC2)n1 [CBK115599]	109%
O=C(O)Cc1c[nH]c2ccccc12 [CBK228897G]	102%
CCOc1ccccc1NC(=O)CSc1nc(N)cc(O)n1 [CBK268075]	107%
O=C(O)C(Cc1ccccc1)N1C(=O)c2ccccc2C1=O (stereo not shown) [CBK260904]	97.6%
CC(=O)c1c(C)nn2c3ccccc3n(CCN3CCOCC3)c12 [CBK262709C]	115%
COc1cc2c(cc1OC)CN(C(=O)C1CCN(C)CC1)CC2 [CBK122744]	93.2%
CC(C)Nc1ccc(C(=O)N2CCC(N3CCOCC3)CC2)cn1 [CBK304353]	105%

SMILES	viability at 28.5 h, 10 µM
O=C(O)CC(NC=C1C(=O)CCCC1=O)C(=O)O (stereo not shown) [CBK261997]	85.2%
O=C(NCCCN1CCOCC1)c1cc(Cl)ccc1[N+](=O)[O-] [CBK265470]	108%
OCCN(CCO)Cc1ccc(Cl)c(Cl)c1 [CBK261919]	88.1%
c1ccc(OCCOc2nccnc2-c2ccc3c(c2)OCO3)cc1 [CBK106714]	96.1%
O=C(O)c1ccc(OCCNS(=O)(=O)c2ccc3oc4ccccc4c3c2)cc1 [CBK299797]	90.8%
CCN1C(=O)C2(CC(=O)N(CCc3cccc(OC)c3)C2=O)c2cc(C)ccc21 (stereo not shown) [CBK075195]	96.7%
O=C(Oc1ccccc1O)c1cccc(Cl)c1 [CBK090130]	97.1%
O=C(CSc1nc2ccccc2[nH]1)Nc1cccc(C(=O)O)c1 [CBK263225]	105%
COc1ccc(Cn2nc(NS(=O)(=O)c3cn(C)cn3)c3ccccc32)cc1 [CBK048143]	87.7%
COc1ccc(C(=O)Nc2ccccc2C(=O)NCCCC(=O)O)cc1 [CBK287024]	111%
O=C(CCn1cnc2cc(-c3noc(-c4cnccn4)n3)ccc21)N1CCCC1 [CBK288595]	104%
Cc1cc(C)nc(SCC(=O)Nc2ccc(C(=O)O)cc2)n1 [CBK263223]	97.8%
O=C1c2ccc(-n3c(=O)c4cc5c(=O)n(-c6ccc7c(c6)C(=O)N(c6ccccc6)C7=O)c(=O)c5cc4c3=O)cc2C(=O)N1c1ccccc1 [CBK262136]	88.1%
Fc1ccc(-c2cncc(NCCc3cccnc3)n2)cc1Cl [CBK065745]	91.3%
Nc1ncc(-c2cncnc2)nc1NCC1CCOCC1 [CBK063877]	98.1%
CC(=O)Nc1ccc(S(N)(=O)=O)cc1Cl [CBK028784]	109%
O=C1COc2ccccc2C/C=C/CC2(CCCN(C(=O)CN3CSCC3=O)C2)CN1 (stereo not shown) [CBK292035]	116%
Brc1ccc(CSc2nc[nH]n2)cc1 [CBK026361]	85.3%
COCCn1c(=O)n(Cc2ccc(F)cc2)c2cccnc21 [CBK283886]	81%
CNC(=O)c1ccc(-c2ccco2)nc1N1CCOCC1 [CBK106212]	108%
c1ccc2c(-c3ccc(OC4CCNCC4)cc3)cncc2c1 [CBK126578]	112%
CSc1sc(C(=O)NC(=O)N2CCOCC2)c2c1-c1nocc1CC2 [CBK018284]	74.3%
Cc1cccnc1C(NC(=O)C1CCN(Cc2ccoc2)CC1)c1ccc(Cl)cc1 (stereo not shown) [CBK148227]	102%

SMILES	viability at 28.5 h, 10 µM
CCc1nc2ccc(C(=O)N(C)CCN(C)C)cn2c1N(C)Cc1cc2ccccc2s1 [CBK146551]	89.3%
CC(=O)Nc1ccc(C(=O)NCc2ccc(S(N)(=O)=O)cc2)cc1 [CBK263642]	105%
c1cnn(CC2CCCCN2c2ncnc3ccsc23)c1 (stereo not shown) [CBK304843]	88.3%
CC(=O)c1cccc(-n2c(CCC(=O)O)ccc2-c2ccc(Br)cc2)c1 [CBK131888]	98.2%
CCOc1ccc(-n2c(N)c(C(=O)NCc3ccco3)sc2=S)cc1 [CBK265578]	96.3%
COc1ccc(C2c3cc(OC)c(OC)cc3CC(=O)N2c2ccc(C(=O)O)cc2)cc1OC (stereo not shown) [CBK296082]	96.4%
Cc1ccc(-c2csc(NC(=O)CN3C(=O)CCC3=O)n2)c(C)c1 [CBK287348]	86.7%
CCNC(=O)CN1CCN(C(=O)C(C)(C)c2cccc(C#N)c2)CC1 [CBK306141]	96.4%
Cc1nnc(SCC(=O)N2CCN(c3ccc(Cl)cc3)CC2)s1 [CBK307389]	87.5%
CCN1CCCCC1CNC(=O)Cn1nc(C)cc1C (stereo not shown) [CBK282057]	98.6%
Cc1nc2c(OCc3ccc(F)c(F)c3)cccn2c1N(C)C(=O)CCC1CCCC1 [CBK147202]	99.3%
CN(C)CC(C)(C)CNC(=O)C1(c2ccccc2)CCCC1 [CBK149532]	107%
Oc1noc(O)c1-c1ncc(C(F)(F)F)cc1Cl [CBK007439]	91.1%
O=C(CN1CCOCC1)N/N=C/c1ccncc1 [CBK019949]	83.8%
COc1cccc2cc(C(=O)N3CCN(C4CCN(C)CC4)CC3)oc12 [CBK149086]	91.2%
Cc1ccc(C(C)C)c(OCC(=O)n2nc(C)cc2C)c1 [CBK058196]	87.9%
O=c1cc(Nc2ccc3c(c2)OCO3)[nH]c(=O)n1-c1ccc(Cl)cc1 [CBK287507]	86.6%
CCOc1cc(/C=C2/SC(=S)N(c3cccc(Cl)c3)C2=O)ccc1OCC(=O)O [CBK264966]	94.2%
O=C(NCc1ccccc1Cl)C1CCCN(S(=O)(=O)c2ccccc2)C1 (stereo not shown) [CBK269086]	92.8%
COc1cccc(CNC(=O)C2CCN(c3nc4c(-c5cccc(C)c5)csc4c(=O)[nH]3)CC2)c1 [CBK215603]	84.9%
CCCC(=O)NCC(C)c1nsc(NS(=O)(=O)c2cccc(Cl)c2C)n1 (stereo not shown) [CBK200053]	96%
N#Cc1ccc2nc([C@H]3CCN(C(=O)c4ccccc4)C3)[nH]c2c1 [CBK289379]	92.4%
Cc1ccc(NC(=O)c2cnc3sc(C)cn3c2=O)cc1 [CBK287711]	97.8%

SMILES	viability at 28.5 h, 10 µM
CCOc1ccc(Cl)cc1CN(C)C(=O)NCc1nccn1C(C)C [CBK307111]	101%
CC(C)N(C(=O)c1ccccc1-c1cnn2cccnc12)C(C)C [CBK307701]	85.4%
Cc1c(C(=O)Nc2ccc(OCc3ccccc3F)cc2)sc2nc[nH]c(=O)c12 [CBK285834]	98.5%
O=C(O)C1CC=CCC1C(=O)NCc1ccc2c(c1)OCO2 (stereo not shown) [CBK264209]	96.4%
Cc1cc2c(o1)c1cnn(CC(=O)N3CCCC3)c(=O)c1n2C(C)C [CBK284232]	89%
COc1cccc(CNC23CC4CC(CC(C4)C2)C3)c1OCc1ccccc1 [CBK268873C]	92%
O=S(=O)(Nc1nc2cc(Cl)ccc2o1)c1ccc(Oc2ccccc2)cc1 [CBK050499]	97.8%
N#CCCn1cc(C(=O)N2CCOCC2)c(-c2ccc(F)cc2)n1 [CBK306189]	95.5%
Cc1cccc(C(=O)N/N=C/c2ccoc2)c1O [CBK018727]	90.7%
O=C(O)C1CCCCC1c1nnc(S)[nH]1 (stereo not shown) [CBK266490]	96.4%
O=C(Cn1c(C2CCNCC2)cc2cccnc21)N1CCCC1 [CBK285013]	96.3%
CCCN(C(=O)c1coc(COc2ccc3sc(C)nc3c2)n1)C1CC1 [CBK306878]	84%
O=C(c1ccccc1F)N1CCN(C(=O)[C@@H]2C[C@@H]3C=C[C@H]2C3)CC1 [CBK282011]	89.1%
CCC(Cn1ccnc1)NS(=O)(=O)c1cc(-n2cccn2)ccc1OC (stereo not shown) [CBK307483]	87.8%
OCC(O)CN1CCc2ccccc21 (stereo not shown) [CBK260896]	101%
CC(Oc1cccc(Cl)c1)C(=O)N/N=C/c1cccc(Oc2ccccc2)c1 (stereo not shown) [CBK262113]	77.5%
Cc1cccc(OCCn2c(SCCC(=O)O)nc3ccccc32)c1 [CBK264682]	93.5%
Fc1cccc(-c2nc3cnccn3c2NCc2cccs2)c1 [CBK282363]	97.5%
Cc1nc2nc(SCc3cc(=O)n4ccccc4n3)nn2c(C)c1Cc1ccccc1 [CBK294460]	89.9%
CCc1ccc(C(=O)C(C)OC(=O)c2nc3nc(C)cc(C)n3n2)cc1 (stereo not shown) [CBK305023]	87.7%
COC(=O)c1ccc(OCCn2nc(C)c(C)c(C#N)c2=O)cc1 [CBK305676]	69.5%
CS(=O)(=O)c1cccc(-c2nnc(NC(=O)c3ccccc3)o2)c1 [CBK287726]	82.4%
